Measurements as given in patent US9149038B2, “4-amino-6-(heterocyclic)picolinates and 6-amino-2-(heterocyclic)pyrimidine-4-carboxylates and their use as herbicides” (Dow AgroSciences LLC, priority 2013, dated 2015).
Where two headings read alike, the source gives them in different places.

How the values were obtained:
[1] = test system: Key Grass and Sedge Weeds as well as Grass Crops; experiment: Post-Emergent Test II: postemergent herbicidal activity, visual rating after 14 d (Table 8); assay type: in vivo; settings: post-emergence, 336 h; for pest or weed control at 35 g/ha: 35 g ai/ha; for pest or weed control at 70 g/ha: 70 g ai/ha; for pest or weed control at 140 g/ha: 140 g ai/ha; for pest or weed control at 280 g/ha: 280 g ai/ha
Procedure, shortened: (§1)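 Visual 0-100% injury score (0 no injury, 100 complete kill) at 14 d post-spray, relative to untreated plants. Seedlings at 1st-2nd true leaf stage; track sprayer at 187 L/ha, highest rate plus ½×, ¼×, ⅛×, 1/16× serial dilutions. Subirrigated after treatment.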

[2] = test system: Key Broadleaf Weed and Crop Species; experiment: Post-Emergent Test II: postemergent herbicidal activity, visual rating after 14 d (Table 7); assay type: in vivo; settings: post-emergence, 336 h; for pest or weed control at 35 g/ha: 35 g ai/ha; for pest or weed control at 70 g/ha: 70 g ai/ha; for pest or weed control at 140 g/ha: 140 g ai/ha; for pest or weed control at 280 g/ha: 280 g ai/ha
Procedure, shortened: as §1

[3] = barnyardgrass (Echinochloa crus-galli), read-out: Visual Growth Reduction (%) 14 Days After Application ECHCG
[4] = giant foxtail (Setaria faberi), read-out: Visual Growth Reduction (%) 14 Days After Application SETFA
[5] = maize, corn (Zea mays), read-out: Visual Growth Reduction (%) 14 Days After Application ZEAMX
[6] = rice (Oryza sativa), read-out: Visual Growth Reduction (%) 14 Days After Application ORYSA
[7] = wheat, spring (Triticum aestivum), read-out: Visual Growth Reduction (%) 14 Days After Application TRZAS
[8] = yellow nutsedge (Cyperus esculentus), read-out: Visual Growth Reduction (%) 14 Days After Application CYPES
[9] = lambsquarters (Chenopodium album), read-out: Visual Growth Reduction (%) 14 Days After Application CHEAL
[10] = oilseed rape, canola (Brassica napus), read-out: Visual Growth Reduction (%) 14 Days After Application BRSNN
[11] = redroot pigweed (Amaranthus retroflexus), read-out: Visual Growth Reduction (%) 14 Days After Application AMARE
[12] = sunflower (Helianthus annuus), read-out: Visual Growth Reduction (%) 14 Days After Application HELAN
[13] = velvetleaf (Abutilon theophrasti), read-out: Visual Growth Reduction (%) 14 Days After Application ABUTH
[14] = wild poinsettia (Euphorbia heterophylla), read-out: Visual Growth Reduction (%) 14 Days After Application EPHHL

## COC(=O)c1nc(-c2cccc3c2OCO3)c(F)c(N)c1Cl [Compound 71, Methyl 4-amino-6-(benzo[d][1,3]dioxol-4-yl)-3-chloro-5-fluoropicolinate]
[1]; [3]
  pest or weed control at 35 g/ha: 0 to 29%
  pest or weed control at 70 g/ha: 0 to 29%
  pest or weed control at 140 g/ha: 0 to 29%
  pest or weed control at 280 g/ha: 0 to 29%
[1]; [4]
  pest or weed control at 35 g/ha: 0 to 29%
  pest or weed control at 70 g/ha: 0 to 29%
  pest or weed control at 140 g/ha: 0 to 29%
  pest or weed control at 280 g/ha: 0 to 29%
[1]; [5]
  pest or weed control at 35 g/ha: 0 to 29%
  pest or weed control at 70 g/ha: 0 to 29%
  pest or weed control at 140 g/ha: 0 to 29%
  pest or weed control at 280 g/ha: 0 to 29%
[1]; [6]
  pest or weed control at 35 g/ha: 0 to 29%
  pest or weed control at 70 g/ha: 0 to 29%
  pest or weed control at 140 g/ha: 0 to 29%
  pest or weed control at 280 g/ha: 0 to 29%
[1]; [7]
  pest or weed control at 35 g/ha: 0 to 29%
  pest or weed control at 70 g/ha: 0 to 29%
  pest or weed control at 140 g/ha: 0 to 29%
  pest or weed control at 280 g/ha: 0 to 29%
[1]; [8]
  pest or weed control at 35 g/ha: 0 to 29%
  pest or weed control at 70 g/ha: 0 to 29%
  pest or weed control at 140 g/ha: 30 to 44%
  pest or weed control at 280 g/ha: 45 to 59%
[2]; [9]
  pest or weed control at 35 g/ha: 95 to 100%
  pest or weed control at 70 g/ha: 95 to 100%
  pest or weed control at 140 g/ha: 95 to 100%
  pest or weed control at 280 g/ha: 95 to 100%
[2]; [10]
  pest or weed control at 35 g/ha: 30 to 44%
  pest or weed control at 70 g/ha: 85 to 94%
  pest or weed control at 140 g/ha: 85 to 94%
  pest or weed control at 280 g/ha: 95 to 100%
[2]; [11]
  pest or weed control at 35 g/ha: 60 to 74%
  pest or weed control at 70 g/ha: 95 to 100%
  pest or weed control at 140 g/ha: 95 to 100%
  pest or weed control at 280 g/ha: 95 to 100%
[2]; [12]
  pest or weed control at 35 g/ha: 85 to 94%
  pest or weed control at 70 g/ha: 95 to 100%
  pest or weed control at 140 g/ha: 95 to 100%
  pest or weed control at 280 g/ha: 95 to 100%
[2]; [13]
  pest or weed control at 35 g/ha: 60 to 74%
  pest or weed control at 70 g/ha: 75 to 84%
  pest or weed control at 140 g/ha: 95 to 100%
  pest or weed control at 280 g/ha: 95 to 100%
[2]; [14]
  pest or weed control at 35 g/ha: 0 to 29%
  pest or weed control at 70 g/ha: 0 to 29%
  pest or weed control at 140 g/ha: 0 to 29%
  pest or weed control at 280 g/ha: 0 to 29%

## Nc1nc(-c2cc3c(cc2F)OC(F)(F)O3)nc(C(=O)O)c1Cl [Compound 57]
[1]; [3]
  pest or weed control at 35 g/ha: 85 to 94%
  pest or weed control at 70 g/ha: 95 to 100%
  pest or weed control at 140 g/ha: 95 to 100%
[1]; [4]
  pest or weed control at 35 g/ha: 45 to 59%
  pest or weed control at 70 g/ha: 0 to 29%
  pest or weed control at 140 g/ha: 45 to 59%
[1]; [5]
  pest or weed control at 35 g/ha: 0 to 29%
  pest or weed control at 70 g/ha: 30 to 44%
  pest or weed control at 140 g/ha: 45 to 59%
[1]; [6]
  pest or weed control at 35 g/ha: 0 to 29%
  pest or weed control at 70 g/ha: 0 to 29%
  pest or weed control at 140 g/ha: 0 to 29%
[1]; [7]
  pest or weed control at 35 g/ha: 0 to 29%
  pest or weed control at 70 g/ha: 0 to 29%
  pest or weed control at 140 g/ha: 30 to 44%
[1]; [8]
  pest or weed control at 35 g/ha: 0 to 29%
  pest or weed control at 70 g/ha: 0 to 29%
  pest or weed control at 140 g/ha: 0 to 29%
[2]; [9]
  pest or weed control at 35 g/ha: 0 to 29%
  pest or weed control at 70 g/ha: 0 to 29%
  pest or weed control at 140 g/ha: 0 to 29%
[2]; [10]
  pest or weed control at 35 g/ha: 0 to 29%
  pest or weed control at 70 g/ha: 0 to 29%
  pest or weed control at 140 g/ha: 0 to 29%
[2]; [11]
  pest or weed control at 35 g/ha: 0 to 29%
  pest or weed control at 70 g/ha: 0 to 29%
  pest or weed control at 140 g/ha: 85 to 94%
[2]; [12]
  pest or weed control at 35 g/ha: 45 to 59%
  pest or weed control at 70 g/ha: 85 to 94%
  pest or weed control at 140 g/ha: 95 to 100%
[2]; [13]
  pest or weed control at 35 g/ha: 0 to 29%
  pest or weed control at 70 g/ha: 0 to 29%
  pest or weed control at 140 g/ha: 0 to 29%
[2]; [14]
  pest or weed control at 35 g/ha: 0 to 29%
  pest or weed control at 70 g/ha: 60 to 74%
  pest or weed control at 140 g/ha: 95 to 100%
